Laboratory results taken from ChEMBL document CHEMBL3774371, “Pyrrolidinones as Modulators of Neurogenesis” (2016).

What follows are compounds tested on NSC (assay: Neurogenic activity in human NSC assessed as increase in cells measured as ATP level after 4 days by Cell titre glo assay).
Format: functional
For COc1cc(N2CCN(Cc3ccncc3)C2=O)ccc1-c1cn[nH]c1, the EC150 was 0.042 µM.
Compound COc1cccc(CC2CCN(c3ccc(-c4cn[nH]c4)c(OC)c3)C2=O)c1 (stereo not drawn) has an EC150 of 0.0239 µM.
Work on CCOc1cc(N2CCN(Cc3cccc(OC)c3)C2=O)ccc1-c1cn[nH]c1 yielded an EC150 of 0.8349 µM.
O=C1C(c2ccc(F)cc2)CCN1c1ccc(-c2cn[nH]c2)cc1 (stereo not drawn) gave an EC150 of 0.0417 µM.
COc1cccc(C2CCN(c3ccc(-c4cn[nH]c4)cc3)C2=O)c1 (stereo not drawn) was tested, and the EC150 was 0.0405 µM.
Compound CCOc1cc(N2CCN(CCc3ccccc3OC)C2=O)ccc1-c1cn[nH]c1 has an EC150 of 1.9784 µM.
For COc1cc(N2CCC(c3ccccc3Cl)C2=O)ccc1-c1cnco1 (stereo not drawn), the EC150 was 0.6783 µM.
Work on COc1cc(N2CCC(c3ccccc3)C2=O)ccc1-c1cnco1 (stereo not drawn) yielded an EC150 of 0.4712 µM.
With CCOc1cc(N2CCN(CCc3ccccc3Cl)C2=O)ccc1-c1cn[nH]c1 the EC150 was 0.1358 µM.
For COc1cc(N2CCN(Cc3cccc(C(F)(F)F)c3)C2=O)ccc1-c1cn[nH]c1, the EC150 was 0.0086 µM.
Compound O=C1C(c2cccc(Cl)c2)CCN1c1ccc(-c2cn[nH]c2)cc1 (stereo not drawn) has an EC150 of 0.2304 µM.
With COc1cc(N2CCN(Cc3cccc(OC(F)(F)F)c3)C2=O)ccc1-c1cn[nH]c1 the EC150 was 0.0092 µM.
COc1cccc(CN2CCN(c3ccc(-c4cn[nH]c4)c(F)c3)C2=O)c1 showed an EC150 of 0.0157 µM.
CCOc1cccc(CN2CCN(c3ccc(-c4cn[nH]c4)c(OC)c3)C2=O)c1 gave an EC150 of 0.0739 µM.
With COc1cc(N2CCCN(Cc3ccccc3Cl)C2=O)ccc1-c1cn[nH]c1 the EC150 was 1.9918 µM.
With CCC1(c2ccccc2)CCN(c2ccc(-c3cnco3)c(OC)c2)C1=O (stereo not drawn) the EC150 was 3.2257 µM.
With O=C1C(c2ccc(Cl)cc2)CCN1c1ccc(-c2cn[nH]c2)cc1 (stereo not drawn) the EC150 was 0.384 µM.
With COc1cc(N2CCC(c3cccc(F)c3)C2=O)ccc1-c1cn[nH]c1 (stereo not drawn) the EC150 was 0.0776 µM.
